Source: PMC9469649 (Bioorganic & medicinal chemistry letters, 2022)

What was measured:
[1] = test system: Kv7.3 over Kv7.2; settings: cited from earlier work
[2] = biological target: Kv7.2/7.3 heterotetramers (Homo sapiens, UniProt O43525+O43526); assay: Whole cell patch-clamp electrophysiology, transfected CHO cells, Kv7.2/7.3; type: cell-based
[3] = biological target: Kv7.2 wild type (WT) channels (Homo sapiens, UniProt O43526); assay: SyncroPatch 384PE automated whole cell patch-clamp, wild type Kv7.2; type: cell-based
Sequence of Kv7.2 wild type (WT) channels (O43526 whole entry): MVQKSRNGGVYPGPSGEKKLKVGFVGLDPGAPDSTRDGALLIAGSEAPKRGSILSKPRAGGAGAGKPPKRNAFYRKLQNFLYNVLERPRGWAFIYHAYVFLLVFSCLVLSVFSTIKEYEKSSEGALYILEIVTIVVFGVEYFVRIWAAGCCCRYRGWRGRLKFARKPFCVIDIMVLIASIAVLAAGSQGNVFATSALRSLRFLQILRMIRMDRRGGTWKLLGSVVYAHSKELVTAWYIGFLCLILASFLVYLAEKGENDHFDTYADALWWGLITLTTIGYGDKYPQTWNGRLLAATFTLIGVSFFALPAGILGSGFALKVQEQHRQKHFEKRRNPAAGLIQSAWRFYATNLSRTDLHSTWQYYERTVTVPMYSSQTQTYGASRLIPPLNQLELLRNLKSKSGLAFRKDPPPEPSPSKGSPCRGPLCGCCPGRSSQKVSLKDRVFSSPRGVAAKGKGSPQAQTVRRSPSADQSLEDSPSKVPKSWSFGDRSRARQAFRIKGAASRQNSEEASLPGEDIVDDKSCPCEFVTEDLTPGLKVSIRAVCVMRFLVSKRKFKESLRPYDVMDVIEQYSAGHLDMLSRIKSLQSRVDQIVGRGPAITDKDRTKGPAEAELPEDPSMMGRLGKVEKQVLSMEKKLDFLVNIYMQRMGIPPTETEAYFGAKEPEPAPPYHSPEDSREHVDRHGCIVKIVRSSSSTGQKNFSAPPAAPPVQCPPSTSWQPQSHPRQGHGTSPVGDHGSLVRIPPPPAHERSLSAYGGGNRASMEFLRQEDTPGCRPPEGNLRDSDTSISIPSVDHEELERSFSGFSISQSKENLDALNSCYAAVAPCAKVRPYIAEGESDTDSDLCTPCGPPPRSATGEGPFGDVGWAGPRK

Structure (SMILES): CCOC(=O)Nc1ccc(NCc2ccc(F)cc2)cc1N [Retigabine, retigabine]
- lower EC50 for Kv7.3 over Kv7.2 [1]: ca. 4 fold

Structure (SMILES): Nc1c(NC(=O)OC2CC2)ccc(NCc2ccc(C(F)(F)F)cc2)c1F [RL-56]
- EC50 [2]: ~0.02 µM

Structure (SMILES): [2H]c1cc(NC(=O)OCC)c(N)c(F)c1NCc1ccc(C(F)(F)F)cc1 [RL-25]
- activity on Kv7.2 relative to RL-71 (less active) ([3]; from EC50 values, Table 2): 20 fold
- potency on Kv7.2 relative to retigabine (more potent) ([3]; from EC50 values, Table 2): 4 fold

Structure (SMILES): CCOC(=O)Nc1cc(F)c2c(c1N)S(=O)(=O)CC(c1ccccc1)N2 (centres unmarked) [CH-02]
- Kv7.2 channel activity ([3]; SyncroPatch screen, 5 μM): completely inactive
